Tested on: dermal sheath (DS) cells
Experiment: Growth of DS cells using serum-free medium
Format: cell-based, human
Details: culturing in serum-free medium containing added PDGF
Method: A 12-well plate (BD) was coated with CELLStart™ (Life Technologies), and cryopreserved DS cells (from person scalp, DSC, passage number: 0) were suspended in 1 ml of serum-free medium and seeded on the plate at 4×10^4 cells per well. The serum-free media used were 1) HFDM-1(−) medium (Cell Science & Technology Institute), 2) HFDM-1(+) medium (Cell Science & Technology Institute), 3) PDGF-AA (10 ng/ml)-dissolved HFDM-1(−) medium and 4) PDGF-BB (10 ng/ml)-dissolved HFDM-1(−) medium. Culturing was conducted at 37° C. in the presence of 5% carbon dioxide gas. The cells were observed under microscopy on days 2, 5 and 10 (FIG. 1: 40×), and the number of cells per visual field was counted (FIG. 2).
A 12-well plate (BD) was coated with CELLStart™ (Life Technologies), and cryopreserved DS cells (from person scalp, DSC, passage number: 0) were suspended in 1 ml of serum-free medium and seeded on the plate at 4×10^4 cells per well. The serum-free media used were 1) StemProSFM CTS (sup+, Life Technologies), 2) PDGF-BB (10 ng/ml)-dissolved StemProSFM CTS (sup+, Life Technologies) and 3) Mosaic hMSC SF Culture Medium (sup+, BD) and 4) PDGF-BB (10 ng/ml)-dissolved Mosaic hMSC SF Culture Medium (sup+, BD). […] The cells were observed under microscopy on days 2 and 7 (FIG. 3: 40×), and the number of cells per visual field was counted (FIG. 4). […]

**Q.** With PDGF as the substance, how does the “growth of DS cells (number of cells per visual field)” value read?
**A.** significantly grow DS cells

Reference: US11427807B2, “Serum-free medium containing PDGF for DS cells” (Shiseido Company, Ltd., priority 2013, dated 2022)
